For assay [1], the system named is Mycobacterium tuberculosis. Description: Inhibition of Mycobacterium tuberculosis ThyA using dUMP as substrate up to 100 uM measured immediatedly and at 10 mins post mTHF addition by spectrophotometric analysis.
The subject of assay [2] is Mycobacterium tuberculosis. Description: (§1) Inhibition of Mycobacterium tuberculosis ThyX using [5-3H]dUMP as substrate after 10 mins by liquid scintillation counting analysis.
The subject of assay [3] is Mycobacterium tuberculosis. Description: Activation of Mycobacterium tuberculosis ThyA using dUMP as substrate up to 100 uM measured immediatedly and at 10 mins post mTHF addition by spectrophotometric analysis.
The nature of assay [4]: as §1.

The source made the active and inactive calls. The calls are words filed in the database; no cut-off is given here.

With `CCCCCCCCCCCCOCc1cn([C@H]2C[C@H](N=[N+]=[N-])[C@@H](COP(=O)(O)O)O2)c(=O)[nH]c1=O`, the inhibition entry in assay [1] and in assay [2] was “inactive” in each case.

On to `COCCOCCOCCOCc1cn([C@H]2C[C@H](O)[C@@H](COP(=O)(O)O)O2)c(=O)[nH]c1=O`, for which the inhibition result in assay [1] and in assay [2] was “inactive” throughout.

A word on the IC50: it is the concentration needed to halve the response being measured. Read a high IC50 as weaker potency. Take `CCCCCCCCCCCOCc1cn([C@H]2C[C@H](O)[C@@H](COP(=O)(O)O)O2)c(=O)[nH]c1=O`: the inhibition result in assay [1] was “inactive”. Also, in assay [3], the outcome was Active. The compound further yielded an IC50 in assay [4] of 8.32 µM.

With `CCCCCCCCCCCCOCc1cn([C@H]2C[C@H](O)[C@@H](COP(=O)(O)O)O2)c(=O)[nH]c1=O`, the inhibition entry in assay [1] and in assay [2] was “inactive” each time.

`CCCCCCCCc1cn(Cc2cn([C@H]3C[C@H](O)[C@@H](COP(=O)(O)O)O3)c(=O)[nH]c2=O)nn1`: the inhibition entry in assay [1] and in assay [2] was “inactive” throughout.

Turning to `CCCCCCCCCCOCc1cn([C@H]2C[C@H](O)[C@@H](COP(=O)(O)O)O2)c(=O)[nH]c1=O`, the inhibition entry in assay [1] and in assay [2] was “inactive” each time.

Regarding `CCCCCCCCCCc1cn(Cc2cn([C@H]3C[C@H](O)[C@@H](COP(=O)(O)O)O3)c(=O)[nH]c2=O)nn1`, the inhibition entry in assay [1] and in assay [2] was “inactive” each time.

Source of the values: ChEMBL document CHEMBL3627679, “Synthesis and evaluation of C-5 modified 2'-deoxyuridine monophosphates as inhibitors of M. tuberculosis thymidylate synthase” (Bioorg Med Chem, 2015).
